According to patent US12545637B2, “Extrahepatic targeted cationic lipid compound with high efficiency and low toxicity and its composition” (BEIJING YOUCARE KECHUANG PHARMACEUTICAL TECHNOLOGY CO., LTD., priority 2023, dated 2026):

Assays:
[1] = tested on: 293T cells; assay: Cell survival rate assay (CCK-8); assay type: cell-based; conditions: LNP with 1.5 μg Fluc-mRNA, 24 hours, CCK-8
Protocol: Cell recovery and passage: 293T cells were recovered, cultured in a culture dish, and passaged to the required number of cells.
(§1) Seeding plate: The cells in the culture dish were digested and counted. Cells were spread in a 96-well plate at 10,000 cells per well and in a 12-well plate at 150,000 cells per well. Cells were cultured overnight until the cells adhered to the wall.
An LNP formulation containing 1.5 μg of Fluc-mRNA (prepared according to example 4, the carrier components of the LNP formulation were cationic lipid, neutral lipid, structured lipid and polymer-conjugated lipid at a molar ratio of 49:10:39.5:1.5, wherein the cationic lipid was listed in Table 1) and the formulation of Lipofectamine 3000 were added to the cell culture medium of a 96-well plate, and further cultivated for 24 hours. 10 μL of CCK-8 solution was then added to each well, and the culture plate was incubated in an incubator for 1 hour. The absorbance at 450 nm was measured by a microplate reader.

[2] = Detection of encapsulation efficiency, drug loading concentration and total RNA concentration (RiboGreen); assay type: physicochemical; conditions: LNP formulation prepared from the cationic lipid
From the text: Encapsulation efficiency is a key quality attribute of liposomes, which refers to the percentage of drug content encapsulated in the lipid bimolecular layer accounting for the total drug dose and can reflect the degree of drug encapsulation in liposomes. The Chinese Pharmacopoeia stipulates that the encapsulation efficiency should generally not be less than 80%.
The drug loading amount is the ratio of the amount of drug in the liposome to the total amount of drug and carrier in the liposome. The drug loading amount directly affects the clinical application dose of the drug. […] The drug loading concentration is proportional to the drug loading amount, and the relative proportion of the drug loading concentrations can represent the relative proportion of the drug loading amounts. The relative ratio of the total RNA concentrations may represent the relative ratio of the amounts of mRNA carried by the LNP formulations.
1×TE buffer, 0.1% Triton X-100 buffer, RiboGreen reagent (1: 200) and mRNA standard stock solution were prepared.
An appropriate amount of the sample was added to an appropriate amount of 1×TE buffer, and the mixture was diluted to obtain a solution containing approximately […] sample per 1 mL. Then the sample was added to a 96-well plate, and 50 μL of the diluted test sample or the mRNA standard stock solution was added to each well, then 1×TE buffer and 0.1% Triton X-100 buffer were added. The sample was incubated at 37° C. for 10 minutes, and 100 μL RiboGreen reagent (1:200) was added to each well of the test sample in the 96-well plate. The sample was centrifugated, and the data were read using a microplate reader, and processed.

[3] = tested on: female BALB/C mice; assay: Distribution of liposomes in mice (protein expression in liver, spleen, lung, heart and kidney); assay type: in vivo
Protocol: (§2) The LNP formulation (prepared according to Example 4) containing […] Fluc-mRNA was injected intramuscularly into female BALB/C mice aged 4-6 weeks and weighed 17-19 g, and the mice were intraperitoneally injected with fluorescent imaging substrate at specific time points after administration (6h, 24 h, 48h and 7d), where the mice were allowed to free move for 5 minutes, and then the average radiation intensity (corresponding to fluorescence expression intensity) of the protein expression of the mRNA carried by the LNP in the mice was detected by the IVIS Spectrum small animal in vivo imaging system.
Current mRNA vaccines usually express proteins in muscle.

[4] = tested on: female BALB/C mice; assay: In vivo imaging in mice of Fluc-mRNA LNP formulations (mRNA expression and duration); conditions: Fluc-mRNA LNP intramuscular; for average radiation intensity, 6 h: 6 h after administration; for average radiation intensity, 24 h: 24 h after administration; for average radiation intensity, 48 h: 48 h after administration; for average radiation intensity, 7 d: 7 d after administration
Protocol: as §2

[5] = tested on: 293T cells; assay: Fluorescent detection of Fluc-mRNA (cell transfection efficiency of LNP formulations); assay type: cell-based; conditions: for Relative light unit (RLU): LNP with 0.3 μg Fluc-mRNA, 96-well plate, 24 hours
Protocol: as §1
The corresponding reagents were added according to the instructions of the Gaussia Luciferase Assay Kit, and the fluorescence expression intensity of each well was detected by an IVIS fluorescence detection system.

[6] = Particle size and polydispersity index (PDI) of lipid nanoparticles by dynamic light scattering; assay type: physicochemical; conditions: for PDI: LNP formulation of the cationic lipid, 25° C.; for Particle size: LNP formulation of the cationic lipid/DSPC/cholesterol/DMG-PEG2000 49:10:39.5:1.5, 25° C.
Protocol: The particle size and polydispersity index (PDI) were determined by dynamic light scattering using Malvern laser particle size analyzer.
10 μL of the liposome solution was weighed, diluted to 1 mL with RNase-free deionized water, and added to the sample pool. Each sample was measured in triplicate. The measurement conditions were: […] scattering angle, and 25° C.

[7] = tested on: 293T cells; assay: Fluorescent detection of Fluc-mRNA (cell transfection efficiency of LNP formulations); assay type: cell-based

Compound | Drug loading concentration [2] [µg/mL] | Encapsulation efficiency [2] [%] | Total RNA concentration [2] [µg/mL] | protein expression in the liver ([3]; mouse, in vivo) | protein expression in the spleen ([3]; mouse, in vivo) | PDI [6] [%] | Particle size [6] [nm] | Cell survival rate [1] [%] | average radiation intensity, 6 h [4] | average radiation intensity, 24 h [4] | average radiation intensity, 48 h [4] | average radiation intensity, 7 d [4] | Relative light unit (RLU) [5] [RLU] | also measured
bis(3-hexylnonyl) 8,8′-((2-hydroxyethyl) azanediyl)dioctanoate [Compound 23, reference compound] | 20.01 | 56.2 | 31.05 | – | – | 12.1 | 147 | 69.11 | 581400 | 100970 | 32917 | 6105 | 1402597 | protein expression in the liver ([3]; mice, intramuscular Fluc-mRNA LNP, at 6h (FIG. 14)): had protein expression in the liver; Multiple of YK-402 ([7]; RLU of YK-402 divided by RLU of the lipid named in the row): 3.60; Multiple of YK-403 ([7]; RLU of YK-403 divided by RLU of the lipid named in the row): 3.74; Multiple of YK-407 ([7]; RLU of YK-407 divided by RLU of the lipid named in the row): 14.53; Multiple of YK-422 ([7]; RLU of YK-422 divided by RLU of the lipid named in the row): 4.59; Multiple of YK-423 ([7]; RLU of YK-423 divided by RLU of the lipid named in the row): 4.44; Ratio relative to SM-102 (RLU, times that of SM-102) ([7]; RLU of the lipid divided by RLU of SM-102): 0.82; Multiple of YK-401 [5]: 4.00
CCCCCCCCC(CCCCCCCC)OC(=O)CCCCCCCN(CCO)CCCCCCCC(=O)OCCC(CCCCCC)CCCCCC [Compound 21, reference compound] | – | – | – | had protein expression in the liver | – | – | – | 67.84 | 600500 | 111040 | 31540 | 6378 | 1511024 | –
CCCCCCCCCCCCC(O)CN(C)CCCCCC(=O)OCC(CCCCCC)CCCCCCCC (stereo not shown) [HHMA, reference compound] | 32.65 | 60.2 | 36.44 | had protein expression in the liver | – | 16.6 | 144 | 64.27 | 661080 | 120010 | 33346 | 5958 | 2078940 | –

Further lines, with some results ahead:

Drug loading concentration [2] [µg/mL] | Encapsulation efficiency [2] [%] | Total RNA concentration [2] [µg/mL] | protein expression in the liver ([3]; mouse, in vivo) | protein expression in the spleen ([3]; mouse, in vivo) | PDI [6] [%] | Particle size [6] [nm] | Compound | Cell survival rate [1] [%] | average radiation intensity, 6 h [4] | average radiation intensity, 24 h [4] | average radiation intensity, 48 h [4] | average radiation intensity, 7 d [4] | Relative light unit (RLU) [5] [RLU] | also measured
26.53 | 62.9 | 36.04 | had protein expression in the liver | had protein expression in the spleen | 22.3 | 154 | CCCCCCCCCCCOC(=O)CCCCCN(CCO)CCCCCCCC(=O)OC(CCCCCCCC)CCCCCCCC [SM-102, reference compound] | 67.90 | 691480 | 123380 | 32871 | 6723 | 1704121 | –
30.40 | 88.3 | 34.44 | had no protein expression in the liver | had protein expression in the spleen | 11.2 | 169 | CCCCCCCCC(CCCCCCCC)OC(=O)CCCCCN(CCO)CCCN(CCO)CCCCCC(=O)OC(CCCCCCCC)CCCCCCCC [YK-419, di(heptadecan-9-yl) 6,6′-(propane-1,3-diyl-bis((2-hydroxyethyl)azanediyl))dihexanoate] | 38.92 | – | – | – | – | 3167322 | –
24.96 | 75.6 | 33.01 | had no protein expression in the liver | – | 17.2 | 149 | CCCCCCCCCCOC(=O)CCCN(CCO)CCCN(CCO)CCCCCCOC(=O)CC(CCCCCC)CCCCCC [YK-418, 6-((3-((4-(decyloxy)-4-oxobutyl)(2-hydroxyethyl)amino)propyl)(2-hydroxyethyl)amino)hexyl 3-hexylnonanoate] | 21.05 | – | – | – | – | 111251 | –
36.72 | 86.3 | 42.57 | had no protein expression in the liver | – | 5.2 | 150 | CCCCCCCCCCOC(=O)CCCCCN(CCO)CCN(CCO)CCCCCC(=O)OCCC(CCCCCC)CCCCCC [YK-411] | 16.33 | 5850 | 2022 | 975 | 480 | 7976 | –
26.88 | 63.3 | 37.86 | had protein expression in the liver | – | 18.2 | 205 | CCCCCCCCC(CCCCCC)C(=O)OCCCCCCN(CCCCO)CCCCCCOC(=O)C(CCCCCC)CCCCCCCC (stereo not shown) [ALC-0315, reference compound] | 47.21 | 841020 | 189740 | 40125 | 7014 | 2189470 | –
32.84 | 92.8 | 35.39 | had no protein expression in the liver | had protein expression in the spleen | 16.1 | 170 | CCCCCCCCC(CCCCCCCC)COC(=O)CCCCCN(CCCO)CCCCN(CCCO)CCCCCC(=O)OCC(CCCCCCCC)CCCCCCCC [YK-424, bis(2-octyldecyl) 6,6′-(butane-1,4-diylbis((3-hydroxypropyl)azanediyl))dihexanoate] | 27.93 | – | – | – | – | 2883414 | –
27.52 | 63.4 | 38.50 | – | – | 16.0 | 189 | CCCCCCCCCCOC(=O)CCCN(CCO)CCCCCC(=O)OCC(CCCCCCCC)CCCCCCCC [YK-009, reference compound] | 70.43 | 981240 | 705470 | 100560 | 9555 | 5146376 | –
